The values that follow come from patent US10375956B2, “Herbicidally active 2-(substituted-phenyl)-cyclopentane-1,3-dione compounds and derivatives thereof” (Syngenta Limited, priority 2013, dated 2019).

Assay type in all cases: in vivo
For test [1], the system named is Setaria faberi (SETFA). Kind of test: Test 1 glasshouse assay, pre-emergence herbicidal activity. The settings on record: 312 h, visual evaluation after 13 days, read-out: Percentage phytotoxicity SETFA. The gist of the method: (§1)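 Pre-emergence spray 1 d post-sowing; acetone/water 50:50, 0.5% Tween 20 vehicle. Glasshouse 24/16° C, 14 h light, 65% RH. Visual % phytotoxicity at 13 d, 100% = total damage, 0% = none.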

Test [2] relates to Zea mays (ZEAMX, corn/maize). The description is as above. The settings on record: 312 h, visual evaluation after 13 days, read-out: Percentage phytotoxicity ZEAMX. An outline of the steps: as §1
Test [3] concerns Abutilon theophrasti (ABUTH). In words: Test 1 glasshouse assay, post-emergence herbicidal activity. To be noted: 312 h, post-emergence (Example 1B Table 1), after 13 days, read-out: Percentage phytotoxicity ABUTH. An outline of the steps: (§2)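 Plants sprayed post-emergence after 8 days' growth with active ingredient in acetone/water (50:50) plus 0.5% Tween 20; glasshouse at 24/16° C day/night, 14 h light, 65% humidity. Visual percentage phytotoxicity scored 13 days later (100% = total damage, 0% = none).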

Test [4] relates to Amaranthus retroflexus (AMARE). Described as above. The settings on record: 312 h, post-emergence (Example 1B Table 1), after 13 days, read-out: Percentage phytotoxicity AMARE. The gist of the method:
as §2

Test [5] relates to Setaria faberi (SETFA). Described as above. The settings on record: 312 h, post-emergence (Example 1B Table 1), after 13 days, read-out: Percentage phytotoxicity SETFA. An outline of the steps:
as §2

The test system of test [6] is Zea mays (ZEAMX, corn/maize). The test is described as above. The settings on record: 312 h, post-emergence (Example 1B Table 1), after 13 days, read-out: Percentage phytotoxicity ZEAMX. An outline of the steps: as §2
The subject of test [7] is Digitaria sanguinalis (DIGSA). Kind of test: Biological Example 3 glasshouse assay, post-emergence, various adjuvant systems. The settings on record: 8 g/ha; for percentage control of (phytotoxicity on) Digitaria sanguinalis (DIGSA): adjuvant 0.5% v/v Hexamoll DINCH + 1.0% v/v AMS + 12.5% v/v IPA; for percentage control of Digitaria sanguinalis: adjuvant 0.5% v/v TEHP + 1.0% v/v AMS + 12.5% v/v IPA. The method, then: (§3) Post-emergence foliar spray application, 200 L/ha, usually one or two replicates for the weeds (depending on application rate), and two replicates for soybean.
(§4) Standard warm conditions (tropical), in glasshouse. Specifically, the glasshouse bay conditions are 24° C./18° C. day/night; 16/8 hours light/dark; 65% humidity.
(§5) The herbicidal application takes place at the following growth stages for plants which include inter alia one or more of the following plants (usually the herbicidal application takes place on at least the following plants: DIGSA, ELEIN, SETFA, ZEAMX, GLXMA Nikko, and GLXMA TMG133, and often also either BRADC or BRAPP):
Digitaria sanguinalis (DIGSA)—growth stage 12 or 13
(§6) Each test compound is applied with one of the following adjuvant systems (all percentages are final concentrations in the aqueous spray mixture):
(§7) Adjuvant system 2: 0.5% v/v Hexamoll™ DINCH**, 1.0% v/v AMS (ammonium sulphate) and 12.5% v/v IPA (isopropyl alcohol).
(§8) Adjuvant system 3: 0.5% v/v tris-(2-ethylhexyl)phosphate (“TEHP”), 1.0% v/v AMS (ammonium sulphate) and 12.5% v/v IPA (isopropyl alcohol).
(§9) Seeds of the weed (including volunteer) plants, typically including inter alia Digitaria sanguinalis (DIGSA), Eleusine indica (ELEIN), Setaria faberi (SETFA), Zea mays (ZEAMX, corn), and sometimes also [either Brachiaria decumbens (BRADC) or Brachiaria platyphylla (BRAPP)], are sown in seed trays (troughs) containing clay loam soil (pH 7.0, 2.2% organic matter, “Trough Mix A”); and soybean seed is sown in pots containing the same soil with 3 soybean seedlings per pot. The plants are sprayed with the test herbicide when they reach the growth stages mentioned above.
(§10) The test herbicidal solutions are prepared by mixing the appropriate aliquots of the test substance(s) and one of the adjuvant systems indicated above *** in deionised water to give the desired treatment concentration.
(§11) The herbicidal application is made as a foliar spray, using a tracksprayer. Following the herbicidal application, the plants are watered twice per day for the duration of the test.
(§12) A visual assessment of the % herbicidal damage is made 7 and 14 Days After herbicide Application (DAA) (or, in a minority of cases, 7 and 15 DAA), and the results are recorded as % visual herbicidal damage where 0%=no damage to plants and 100%=plant totally killed.
(§13) Compounds A2 and A7 were tested using the 0.5% v/v Hexamoll™ DINCH™+1.0% v/v AMS+12.5% v/v IPA adjuvant system. Compounds A11, A12, A14, A20 and A21 were tested using the 0.5% v/v tris-(2-ethylhexyl)phosphate (“TEHP”)+1.0% v/v AMS+12.5% v/v IPA adjuvant system.
(§14) The percentages of herbicidal damage/plant control, at 14 Days After herbicide Application (DAA) (or, in some cases, at 15 DAA), for the Compounds tested and for some of the plants tested, were in the following percentage ranges. For the tested compounds, the phytotoxicity results shown herein are generally the average of 2 or 3 repetitions (for the grassy weeds including corn) or the average of 2 repetitions (for soybean for most of the tested compounds). However, for Compound A2 on soybean there was 1 repetion only.

Test [8] deals with Zea mays (ZEAMX, maize/corn) cultivar Garland. Described as above. To be noted: 8 g/ha; for percentage control of (phytotoxicity on) Zea mays (ZEAMX, maize, corn): adjuvant 0.5% v/v Hexamoll DINCH + 1.0% v/v AMS + 12.5% v/v IPA; for percentage control of Zea mays: adjuvant 0.5% v/v TEHP + 1.0% v/v AMS + 12.5% v/v IPA. The method, then: as §3, §4, §5
Zea mays (ZEAMX, maize/corn, e.g. can occur as volunteer corn) cultivar “Garland”—growth stage 12 or 13
as §6, §7, §8, §9, §10, §11, §12, §13, §14
Zea mays (ZEAMX, maize, corn) is often present as a “volunteer” weed (“volunteer” corn) in fields where it was planted as a crop in preceding growing season(s) and where the present field crop is not corn.

The subject of test [9] is Glycine max (GLXMA, soybean) cultivar Nikko. The test is described as above. The settings on record: crop. The method, then:
as §3, §4, §5
Glycine max (GLXMA, soybean) cultivar “Nikko”—growth stage: 1st trifoliate
as §6, §7, §8, §9, §10, §11, §12, §13, §14

Setting [10] is: 120 g/ha, 14 DAA, adjuvant 0.5% v/v Hexamoll DINCH + 1.0% v/v AMS + 12.5% v/v IPA.

As to `C#CCC1CC(=O)C(c2c(C)cc(-c3ccc(Cl)cn3)cc2C)C1=O` (stereo not drawn) [Compound A2], the pest or weed control at 250 g/ha in the test on Setaria faberi (SETFA) [1] stood at 100%; in test [2] it was 100%; in [3] it was 80%; in test [4], 70%; in the test with Setaria faberi (SETFA) [5], 100%; in test [6] it was 100%. The pest or weed control at 62.5 g/ha worked out at 70% in test [3], 70% in test [4], 100% in the test with Setaria faberi (SETFA) [5] and 100% in test [6]. In addition, the “percentage control of (phytotoxicity on) Digitaria sanguinalis (DIGSA)” value in test [7] (14 DAA) stood at 90%. Further, in test [8] (14 DAA), the “percentage control of (phytotoxicity on) Zea mays (ZEAMX, maize, corn)” value is reported as 10%. The “percentage phytotoxicity on Glycine max cultivar Nikko” value (“percentage phytotoxicity” below) in test [9] (setting [10]) was found to be 10%.

For the compound `C#CCC1CC(=O)C(c2c(Cl)cc(-c3ccc(F)cc3F)cc2OC)C1=O` (stereo not drawn) [Compound A12], the pest or weed control at 250 g/ha in the test with Setaria faberi (SETFA) [1] amounted to 100%; in test [2] it was 100%; in test [3] it was 80%; in test [4] it was 80%; in the test on Setaria faberi (SETFA) [5], 100%; in [6] it was 100%. In addition, the pest or weed control at 30 g/ha in test [3] turned out to be 50%; in test [4], 30%; in the test on Setaria faberi (SETFA) [5], 100%; in [6], 100%. In addition, in [7] (14 or 15 DAA), the “percentage control of Digitaria sanguinalis” value amounted to 98.5%. Moreover, in [8] (14 or 15 DAA), the “percentage control of Zea mays” value is 100%. Besides, the “percentage phytotoxicity” value in test [9] (240 g/ha, 14 or 15 DAA, adjuvant 0.5% v/v TEHP + 1.0% v/v AMS + 12.5% v/v IPA) was 15%.

Turning to `C#CCC1CC(=O)C(c2c(Cl)cc(-c3ccc(Cl)cc3)cc2OC)C1=O` (stereo not drawn) [Compound A11, 2-[2-chloro-4-(4-chlorophenyl)-6-methoxyphenyl]-4-prop-2-ynylcyclopentane-1,3-dione], the pest or weed control at 250 g/ha with Setaria faberi (SETFA) [1] was 100%; in test [2], 100%; in test [3], 80%; in test [4], 80%; with Setaria faberi (SETFA) [5], 100%; in [6] it was 100%. For the same compound, the pest or weed control at 30 g/ha in [3] was 30%; in test [4], 50%; with Setaria faberi (SETFA) [5], 100%; in test [6] it was 100%. Besides, in test [7] (14 DAA), the “percentage control of Digitaria sanguinalis” value is given as 99%. Also, the “percentage control of Zea mays” value in test [8] (14 DAA) was 100%. Besides, in [9] (120 g/ha, 14 DAA, adjuvant 0.5% v/v TEHP + 1.0% v/v AMS + 12.5% v/v IPA), the “percentage phytotoxicity” value is 15%.

For `C#CCC1CC(=O)C(c2c(F)cc(-c3ccc(Cl)cc3)cc2OC)C1=O` (stereo not drawn) [Compound A14], the pest or weed control at 250 g/ha in the test on Setaria faberi (SETFA) [1] stood at 100%; in test [2], 100%; in test [3], 0%; in [4] it was 60%; in the test on Setaria faberi (SETFA) [5], 100%; in test [6] it was 100%. Further, the pest or weed control at 62.5 g/ha in test [3] was 0%; in test [4], 50%; in the test on Setaria faberi (SETFA) [5], 90%; in test [6], 100%. In addition, in test [7] (15 DAA), the “percentage control of Digitaria sanguinalis” value was determined as 85%. In addition, the “percentage control of Zea mays” value in test [8] (15 DAA) was 90%. Also, in [9] (120 g/ha, 15 DAA, adjuvant 0.5% v/v TEHP + 1.0% v/v AMS + 12.5% v/v IPA), the “percentage phytotoxicity” value stood at 5%.

For the compound `C#CCC1CC(=O)C(c2c(F)cc(-c3ccc(F)cc3)cc2OC)C1=O` (stereo not drawn) [Compound A20, 2-[2-fluoro-4-(4-fluorophenyl)-6-methoxyphenyl]-4-prop-2-ynylcyclopentane-1,3-dione], the pest or weed control at 250 g/ha with Setaria faberi (SETFA) [1] was 100%; in test [2] it was 100%; in [3], 60%; in test [4], 70%; in the test with Setaria faberi (SETFA) [5], 100%; in test [6] it was 100%. Further, the pest or weed control at 30 g/ha in test [3] is 0%; in [4], 0%; in the test with Setaria faberi (SETFA) [5] it was 80%; in test [6], 90%. Further, the “percentage control of Digitaria sanguinalis” value in [7] (14 or 15 DAA) worked out at 75%. In addition, the “percentage control of Zea mays” value in test [8] (14 or 15 DAA) was 90%. Further, in [9] (120 g/ha, 14 or 15 DAA, adjuvant 0.5% v/v TEHP + 1.0% v/v AMS + 12.5% v/v IPA), the “percentage phytotoxicity” value stood at 2%.

For the compound `C#CCC1CC(=O)C(c2c(Cl)cc(-c3ccc(F)cc3)cc2OC)C1=O` (stereo not drawn) [Compound A7], the pest or weed control at 250 g/ha with Setaria faberi (SETFA) [1] worked out at 100%; in [2] it was 100%; in test [3], 80%; in [4], 80%; with Setaria faberi (SETFA) [5], 100%; in test [6], 100%. The pest or weed control at 30 g/ha came out at 30% in test [3], 20% in test [4], 100% in the test with Setaria faberi (SETFA) [5] and 100% in [6]. Besides, the “percentage control of (phytotoxicity on) Digitaria sanguinalis (DIGSA)” value in test [7] (14 DAA) turned out to be 95%. The “percentage control of (phytotoxicity on) Zea mays (ZEAMX, maize, corn)” value in test [8] (14 DAA) turned out to be 100%. Moreover, the “percentage phytotoxicity” value in [9] (setting [10]) stood at 2.5%.
